Experiment [1] is described as follows: Lipid hydroperoxide (LOOH) formation in cholesterol-enriched model membranes under autoxidation (Example 3). The class given is biochemical. The note with it: EPA to lipids 1:30, C/P mole ratio 0.6:1. The method, then: An experiment was conducted to test EPA in model membranes enriched with PUFAs and cholesterol at levels that reproduce disease or high CV-risk conditions (i.e., hypercholesterolemia). […] Levels of lipid hydroperoxides were also measured in cholesterol-enriched membrane prepared in the absence of EPA as a control. […] CHOD-iodide color reagent (stock) was prepared according to a procedure modified from El-Saadani et […], Goher […], Jurgens G. A spectrophotometric assay for lipid peroxides in serum lipoproteins using commercially available reagent. J. Lipid. […] Membrane samples consisting of DLPC±cholesterol were prepared as follows. […] To ensure spectrophotometric readings within the optimum absorbance range, sample volumes taken for measurement of lipid peroxide formation were adjusted for length of peroxidation and range between 100 and 10 μL. […] Absorbances were measured against a CHOD blank at 365 nm using a Beckman DU-640 spectrophotometer. The CHOD colorimetric assay is based on the oxidation of iodide (I^-) by lipid hydroperoxides (LOOH) and proceeds according to the following reaction scheme: […]3^- The quantity of triiodide anion (I3^-) liberated in this reaction is directly proportional to the amount of lipid hydroperoxides present in the membrane sample.

The nature of experiment [2]: Cholesterol domain formation by small angle x-ray diffraction (Example 3). The note with it: PUFA-enriched model membranes, after autoxidation. As for the experimental part:
Cholesterol domain peak intensity was calculated from multiple small angle x-ray diffraction measurements, which are directly proportional to domain levels. […] EPA-treated membranes reduced LOOH levels by greater than 90% (728±30 μM) compared to untreated controls (p<0.001).

Experiment [3] deals with sdLDL isolated from human plasma. Nature of the experiment: Copper-induced sdLDL oxidation for 1 hour (Example 12). The note with it: 10.0 μM; sdLDL 200 μg/mL; copper-induced oxidation 1 hour. It is filed as biochemical.
For the next experiment, the system named is human HDL. Nature of the experiment: Copper-induced oxidation of human HDL, TBARS/MDA (Example 14). The class given is biochemical. As for the experimental part: LDL and sdLDL subfractions (0.6 mL each) were incubated with either 10 μL vehicle (ethanol) or 10 μL drug stock solution for 30 min to 1 hr at 37° C. Oxidation was initiated by the addition of 10 μM CuSO4. After 2 hr, 100 μL aliquots were removed from each subfraction and combined with 1.0 mL thiobarbituric acid (0.5%), 10 μL trichloroacetic acid (5%), 10 μL BHT (5 mg/mL in methanol), and 10 μL EDTA (5 mM). Sample aliquots were incubated at 100° C. for 20 min and then assayed for the formation of thiobarbituric acid-reactive substances (TBARS), which have a molar absorptivity (c) value of 1.56×10^5 M^−1 cm^−1 at 532 nm and are derived principally from the reaction of thiobarbituric acid with malondialdehyde (MDA), a reactive aldehyde produced by LDL oxidation. Sample TBARS concentrations were determined spectrophotometrically by measuring sample absorbances against a standard curve derived from the hydrolysis of 1,1,3,3-tetramethoxypropane.
A study was performed to test whether EPA, DHA or EPA/DHA have antioxidant effects on high density lipoprotein. HDL was isolated from human plasma by iodixanol gradient ultracentrifugation and adjusted to a final apolipoprotein (apoA1) concentration of 10 mg/mL. Isolated HDL was separated into test samples of 200 μg/mL […] (based on ApoA1), and incubated at 37° C. in the absence (vehicle) or presence of EPA and/or DHA; 5.0 or […] each. Samples were then subjected to copper-induced oxidation (10 μM CuSO4) and, at different time points up to 14 hours, aliquots were removed from each sample and formation of TBARS was determined as explained above in Example 6.

Setting [4] is: 5 μM (combination: 5 μM each), 6 h.

Each structure is given as a SMILES string. Where only a bound is given, the exact number is not on record here.

Turning to `CC/C=C\C/C=C\C/C=C\C/C=C\C/C=C\CCCC(=O)O` [EPA, cis-5,8,11,14,17-eicosapentaenoic acid], in experiment [1] (after autoxidation 72 hours), the LOOH level was 728 ± 30 µM. In addition, the “reduction of LOOH levels compared to untreated controls” value in experiment [1] (autoxidation 37° C., 72 hours) is recorded as “greater than 90%”. The “cholesterol crystalline domain formation” value in experiment [2] is recorded as “inhibits cholesterol crystalline domain formation”. Also, the “reduction of sdLDL oxidation compared to vehicle treatment alone” value in experiment [3] was above 90%. Also, in the experiment with human HDL (setting [4]), the MDA formation amounted to 1.03 ± 0.10 µM and the “inhibition of HDL oxidation (antioxidant activity)” value amounted to 81%. For the same compound, in the experiment on human HDL (10 μM, 1.0 hr, 10 μM CuSO4), the MDA formation is 0.384 ± 0.097 µM and the “inhibition of HDL oxidation” value is 92%. Further, in the experiment on human HDL (10 μM, 4 h), the MDA formation was 0.622 ± 0.066 µM and the “inhibition of HDL oxidation” value was determined as 89%. In addition, in the experiment on human HDL (10 μM, 14 h), the MDA formation is 2.01 ± 0.10 µM and the “inhibition of HDL oxidation vs. vehicle” value stood at 64%.

Source of the values: patent publication US20190054054A1, “Methods reducing or preventing oxidation of high density lipoprotein (HDL)” (Amarin Pharmaceuticals Ireland Limited, priority 2017, published 2019).
